Assay results from patent US12678451B2, “Cannabinoid and omega fatty acid compositions and methods of using” (GreenWay Herbal Products, LLC, priority 2019, dated 2026).
Like-named read-outs stand apart in the source and are kept apart here.

Columns and labels:
[1] = doses up to 600 mg in humans; cited from earlier work
DPPH antioxidant assay = assay type: biochemical; settings: 100 μM
Description: The ability of the cannabinoids to act as potential antioxidants was assessed using the 2,2-diphenyl-1-picrylhydrazyl (DPPH) antioxidant assay. The cannabinoids CBDA, CBD, CBDVA, CBDV, CBG, THCV, and the 1:1 CBD:CBDA mixture had the highest antioxidant activities with radical scavenging activities of 38.19%, 48.00%, 43.81%, 44.21%, 44.28%, 45.71%, and 43.74%, respectively.
The 2,2-diphenyl-1-picrylhydrazyl (DPPH) free radical (Alfa Aesar) was prepared at 0.1 mM in ethanol. The cannabinoids were tested at a final concentration of 100 uM. 2 uL of 7.5 mM stock solutions of the cannabinoids to be tested in DMSO were added to 148 uL of 0.1 mM DPPH to achieve a final concentration of 100 μM in the assay. Ascorbic acid (Thermo Scientific) at a final concentration of 10 mg/ml was used as a positive control. The reaction mixture was incubated in the dark at room temperature for 1 hour, the absorbance of the mixture was read at 517 nm using a Spectra Max 5M microplate reader (Molecular Devices, LLC, Sunnyvale, Calif., USA) and the absorbance was converted to percent radical scavenging activity (% RSA) using the following formula: % RSA=[(Absorbance of the control−Absorbance of the sample)/(Absorbance of the control)]×100.
Free radical production occurs when the immune system is activated and antioxidants represent potential effective treatments for inflammatory conditions and autoimmune diseases. […] The DPPH antioxidant assay can be used to measure the ability of a compound to scavenge free radicals by measuring the ability of compounds to hydrogenate and reduce DPPH. The DPPH assay was conducted on CBCA, CBDA, CBDVA, CBGA, CBLA, CBNA, THCVA, and their decarboxylated derivatives as well as the 1:1 CBD:CBDA mixture.

[2] = tested on: cytokines induced in mice by LPS; test: Mouse LPS cytokine animal model (Example 3), cannabinoids in PB with 5% DMSO; assay type: in vivo; settings: 5 mg/kg
Description: This experiment was conducted to compare the ability of CBD, CBDA or the 1:1 equimolar mixture of CBD:CBDA to suppress the induction of cytokines whose expression levels were induced in mice by LPS.
The ability of agents to suppress the immune system can be tested in vivo using an LPS mouse model, in which mice are injected with LPS to cause an immune response (Field et al., 1970; Ghezzi P and Sipe J D, 1988).
Four 20 g female C57BL/6 mice were used per group. The experimental mice were first injected with 0.1 mL of the cannabinoids prepared at 1 mg/mL in phosphate buffer (PB) with 5% DMSO to yield a final dose of 5 mg/kg, followed one hour later by the injection of 0.1 mL of 0.02 mg/mL LPS in PB to yield a final dose of 0.1 mg/kg. Mice injected with 0.1 mL of PB with 5% DMSO and 0.1 mL of PBS served as a non-induced control and mice injected with 0.1 mL of PB with 5% DMSO and 0.1 mL of 0.02 mg/mL LPS in PB served as a LPS untreated control. After allowing two hours for the immune system to be induced by LPS, the mice were then euthanized, heart punctures performed to extract the blood, which was allowed to coagulate on ice for 1 hour before centrifuging to isolate the serum. The levels of 32 of the most common mouse cytokines (Eve Technologies, Calgary, Canada, Table 9) were determined by multi-plex analysis.

[3] = tested on: differentiated U-937 cells; test: Human cellular U-937 autophagy induction assay (anti-LC3); assay type: cell-based; settings: 1.0 μM, 12 hours
Description: The induction of autophagy was monitored using anti-LC3 antibodies to detect LC3 on the autophagosome in human U-937 pro-monocytic histiocytic lymphoma cells (ATCC, Manassas, Va., USA), which generate morphologies characteristic of macrophages upon induction by various stimuli. U-937 cells were cultured in RPMI-1640 medium with L-glutamine and sodium bicarbonate (Sigma-Aldrich, St Louis, Mo.) supplemented with 10% fetal bovine serum (FBS) and 1% penicillin in 25 cm2 tissue flasks at 37° C. in a 5% CO2 humidified atmosphere and passaged every 2-3 days. U-937 cells were seeded in 96 well plates at 5×10^5 cells/mL and stimulated with 100 ng/mL PMA to induce differentiation for 24 hours. The cells were then treated with the various cannabinoids at 1.0 μM concentrations for 12 hours. 30 μM chloroquine was used as a positive control. After treatment, the cells were fixed using 3.7% formaldehyde in PBS for 15 minutes at room temperature and washed with PBS to remove the fixative. Permeabilization reagent (0.2% Triton X-100 in PBS) (Sigma-Aldrich) was added, the cells were incubated for 15 minutes at room temperature and then the cells were washed with PBS to remove the permeabilization reagent. LC3B rabbit polyclonal antibody (Invitrogen) was added at a final concentration of 0.5 μg/ml for 1 hour at room temperature and the cells were washed with PBS remove the primary antibody. Secondary conjugated goat anti-rabbit polyclonal antibody (Thermo Scientific) was then added at a final concentration of 2.0 μg/ml for 1 hour at room temperature. The cells were washed, Hoechst dye was added to stain the nucleus and the cells were imaged using an Arrayscan VTI high-content screening (HCS) reader (Thermo Scientific) with the appropriate filters and the data was analyzed using the vHCS Scan software.
Chloroquine at a concentration of 30 μM was included as a positive control. The ability to induce autophagy was determined as a percentage with respect to the untreated control.

[4] = doses up to 100 mg in mice; cited from earlier work
[5] = tested on: cytokine levels in differentiated THP-1 cells treated with LPS; test: THP-1 human cellular LPS cytokine assay, three independent experiments, total averaged suppression
[6] = tested on: cytokine levels in differentiated THP-1 cells treated with LPS; test: THP-1 human cellular LPS cytokine assay, four independent experiments, per cytokine; assay type: cell-based; settings: 2 µM; LPS 20 ng/mL
[7] = tested on: animal or human cells grown via tissue culture; settings: cited from earlier work

C=C(C)[C@@H]1CCC(C)=C[C@H]1c1c(O)cc(CCCCC)cc1O [CBD, 2-[(1R,6R)-6-Isopropenyl-3-methyl-2-cyclohexen-1-yl]-5-pentyl-1,3-benzenediol]
adverse side effects [1]: no adverse side effects | radical scavenging activity compared to the untreated control (DPPH antioxidant assay): at least two-fold | % RSA (radical scavenging activity) (DPPH antioxidant assay; 1 hour): 48.00% | Average cytokine suppression [2]: 12.86% | GM-CSF suppression [2]: 34.53% | IFNγ suppression [2]: −0.19% | IL-1β suppression [2]: 10.58% | IL-2 suppression [2]: −0.09% | IL-6 suppression [2]: 4.49% | IL-12β p40 suppression [2]: 34.89% | IL-13 suppression [2]: 6.38% | IL-17 suppression [2]: 7.51% | IP-10 suppression [2]: 1.72% | KC suppression [2]: 7.85% | LIF suppression [2]: 25.24% | M-CSF suppression [2]: 7.70% | MIP-1α suppression [2]: 6.69% | MIP-1β suppression [2]: −0.77% | MIP-2 suppression [2]: 34.56% | TNF-α suppression [2]: 24.74% | Fluorescence (LC3) [3]: 45.43 | activation at 1 µM ([3]; Homo sapiens, U-937, read-out: Induction of autophagy with respect to the untreated control): -5.84% | adverse side effects [4]: no adverse side effects | effectiveness at reducing elevated cytokine levels relative to dexamethasone [5]: at least half as effective as dexamethasone | inhibition at 2 µM ([5]; Homo sapiens, THP-1, 4 h, read-out: % Cytokine Suppression (total averaged)): 33.1% | Average cytokine suppression [6]: 39.62% | EGF suppression [6]: −5.61% | FGF-β suppression [6]: 41.85% | Flt-3L suppression [6]: 60.02% | G-CSF suppression [6]: 51.32% | GM-CSF suppression [6]: 45.16% | IFNγ suppression [6]: 13.71% | IL-1α suppression [6]: 55.14% | IL-1β suppression [6]: 71.06% | IL-4 suppression [6]: 14.63% | IL-6 suppression [6]: 66.26% | IL-7 suppression [6]: 18.2% | IL-10 suppression [6]: 32.42% | IL-12 p70 suppression [6]: −31.17% | IL-15 suppression [6]: 62.30% | IL-18 suppression [6]: 56.90% | IP-10 suppression [6]: 67.08% | MCP-1 suppression [6]: 43.90% | MIP-1β suppression [6]: 31.85% | TNFα suppression [6]: 29.05% | TNFβ suppression [6]: 68.24% | dose that can cause significant cytotoxicity [7]: less than 5 μM
